This note sets out measurements from ChEMBL document CHEMBL3792304 (Eur J Med Chem, 2016).

Data set [1] deals with Hepatitis C virus. The data set is described as follows: Antiviral activity against HCV subtype 1b by replicon assay. The format is functional, organism-based, Hepacivirus hominis. The note with it: genotype 1b. (Replicon systems follow genome replication, usually without infectious particles.)
Data set [2] has as its system Hepatitis C virus. The data set can be described thus: Antiviral activity against Hepatitis C virus genotype 1b infected in human Huh7ET cells expressing LucUbiNeo fusion protein measured after 2 days by luciferase Bright-Glo assay. The note with it: Huh-7, 48 h. The format is functional, organism-based, Hepacivirus hominis.
Data set [3] is described as follows: Cytotoxicity against human Huh7ET cells expressing LucUbiNeo fusion protein measured after 4 hrs at 37 degC by MTT assay. The class given is cell-based, Huh-7.
Data set [4] is described as follows: Selectivity index, ratio of CC50 for human Huh7ET cells expressing LucUbiNeo fusion protein to EC50 for Hepatitis C virus genotype 1b infected in human […] cells. The format is toxicity, cell-based. The note with it: read-out: Ratio CC50/EC50.

A word on the pEC50: it is the EC50 on a negative log10 scale, so that one unit is a factor of ten. High values mean a small EC50, low ones a large EC50. In general, CC50 refers to the concentration giving 50% cytotoxicity. Lower therefore signals greater toxicity to the cells.

Molecules are shown by their SMILES. pEC50: −log10 of the molar value.

The compound `CC(C)OC(=O)[C@H](C)NP(=O)(OC[C@H]1O[C@@H](n2ccc(=O)[nH]c2=O)[C@](C)(F)[C@@H]1O)Oc1ccccc1` (some centres not stated) showed a pEC50 in the data set on Hepatitis C virus [1] of 7.32.

In the data set on Hepatitis C virus [2], `CCCOCCNc1nc(Nc2ccccc2)nc2c1cc(-c1c(Cl)cccc1Cl)c(=O)n2C` showed a pEC50 of 5.29. Moreover, it took 84.7 µM to reach half-maximal cytotoxicity in data set [3] (CC50 at 4 h).

In the data set with Hepatitis C virus [2], `Cn1c(=O)c(-c2ccc(F)cc2)cc2c(N3CCCC3)nc(N)nc21` gave a pEC50 of 4.98. This compound returned a CC50 at 4 h in data set [3] of 111 µM.

As for `CC(C)Cn1c(=O)c(-c2c(Cl)cccc2Cl)cc2c(N)nc(Nc3ccccc3)nc21`, in the data set on Hepatitis C virus [2], the pEC50 was 6.66. Besides, the CC50 at 4 h in data set [3] is 185 µM.

As for `CCCn1c(=O)c(-c2c(Cl)cccc2Cl)cc2c(N)nc(Nc3ccccc3)nc21`, the pEC50 in the data set on Hepatitis C virus [2] is 5.85. This compound showed a CC50 at 4 h in data set [3] of 181 µM.

In turn, `CCCCCNc1nc(N)nc2[nH]c(=O)c(-c3c(Cl)cccc3Cl)cc12` gave a pEC50 in the data set on Hepatitis C virus [2] of 5.49. The CC50 at 4 h in data set [3] amounted to 11 µM.

For the compound `CCCOCCNc1nc(Nc2ccccc2)nc2c1CC(c1c(Cl)cccc1Cl)C(=O)N2` (configuration not stated), in the data set on Hepatitis C virus [2], the pEC50 was 4.91. In data set [3], this compound registered a cytotoxic concentration (CC50) at 4 h of 50.5 µM.

The compound `CCCOCCNc1nc(Oc2ccccc2)nc2[nH]c(=O)c(-c3ccc(F)cc3)cc12` gave a pEC50 in the data set with Hepatitis C virus [2] of 5.48. In data set [3], half-maximal cytotoxicity (CC50 at 4 h) was put at 79.8 µM.

Compound `CCCOCCNc1nc(N)nc2c1cc(-c1ccc(F)cc1)c(=O)n2C` had a pEC50 in the data set with Hepatitis C virus [2] of 5.33. In data set [3], this compound displayed a CC50 at 4 h of 54.3 µM.

`Cn1c(=O)c(-c2ccccc2)cc2c(N)nc(Nc3ccccc3)nc21` showed a negative logarithm of the EC50 (pEC50) in the data set with Hepatitis C virus [2] of 6.05. The compound further displayed a CC50 at 4 h in data set [3] of 23.5 µM.

In the data set with Hepatitis C virus [2], `CCCOCCNc1nc(N)nc2[nH]c(=O)c(-c3ccc(F)cc3)cc12` had a pEC50 of 5.68. In data set [3], this compound returned a CC50 at 4 h of 130 µM.

The compound `Cn1c(=O)c(-c2c(Cl)cccc2Cl)cc2cnc(Nc3ccccc3)nc21` gave a pEC50 in the data set with Hepatitis C virus [2] of 6.64. In data set [3], this compound had a 50% cytotoxic concentration (CC50) at 4 h of 0.9 µM.

For `CCCOCCOc1nc(N)nc2c1cc(-c1c(Cl)cccc1Cl)c(=O)n2C`, the pEC50 in the data set on Hepatitis C virus [2] was 4.98. The compound further yielded a half-maximal cytotoxic concentration (CC50) at 4 h in data set [3] of 50.1 µM.

`Cn1c(=O)c(-c2c(F)cccc2F)cc2c(N)nc(Nc3ccccc3)nc21`: in the data set on Hepatitis C virus [2], the pEC50 is 6.80. In addition, the CC50 at 4 h in data set [3] is 10.4 µM.

`Cn1c(=O)c(-c2c(Br)cccc2Br)cc2c(N)nc(Nc3ccccc3)nc21`: in the data set with Hepatitis C virus [2], the negative-log EC50 (pEC50) was 6.52. In data set [3], it took 0.8 µM to reach half-maximal cytotoxicity (CC50 at 4 h).

On to `COCCn1c(=O)c(-c2c(Cl)cccc2Cl)cc2c(N)nc(Nc3ccccc3)nc21`, for which the pEC50 in the data set with Hepatitis C virus [2] was 6.00. For the same compound, it took 241 µM to reach half-maximal cytotoxicity in data set [3] (CC50 at 4 h).

In the data set with Hepatitis C virus [2], `CCn1c(=O)c(-c2c(Cl)cccc2Cl)cc2c(N)nc(Nc3ccccc3)nc21` had a pEC50 of 5.20.

The compound `O=C1Nc2nc(NCc3ccccc3)[nH]c(=O)c2CC1c1c(Cl)cccc1Cl` (configuration not stated) had a pEC50 in the data set with Hepatitis C virus [2] of 5.02. Further, the CC50 at 4 h in data set [3] was 69 µM.

As for `O=C1Nc2nc(Nc3ccccc3)nc(On3nnc4ccccc43)c2CC1c1ccc(Cl)cc1Cl` (configuration not stated), the pEC50 with Hepatitis C virus [2] is 5.87. The compound also returned a CC50 at 4 h in data set [3] of 5.5 µM.

Turning to `CCCCCNc1nc(N)nc2c1cc(-c1ccc(F)cc1)c(=O)n2C`, the negative logarithm of the EC50 (pEC50) in the data set with Hepatitis C virus [2] is 4.68. Besides, half-maximal cytotoxicity in data set [3] (CC50 at 4 h) was put at 79.8 µM.

The compound `Nc1nc(Nc2ccccc2)nc2c1cc(-c1c(Cl)cccc1Cl)c(=O)n2CCO` showed a pEC50 in the data set on Hepatitis C virus [2] of 5.64. In addition, the CC50 at 4 h in data set [3] came to 29.3 µM.

In turn, `Cn1c(=O)c(-c2c(F)cccc2C(F)(F)F)cc2c(N)nc(Nc3ccccc3)nc21` showed a pEC50 in the data set on Hepatitis C virus [2] of 5.55. Further, it took 6.3 µM to reach half-maximal cytotoxicity in data set [3] (CC50 at 4 h).

In the case of `O=c1[nH]c2nc(Nc3ccccc3)[nH]c(=O)c2cc1-c1ccc(F)cc1`, the negative logarithm of the EC50 (pEC50) in the data set on Hepatitis C virus [2] was 7.47. This compound had a CC50 at 4 h in data set [3] of 13.5 µM. Moreover, in data set [4], the selectivity ratio worked out at 397.

For the compound `COc1ccc(Nc2nc3[nH]c(=O)c(-c4ccc(F)cc4)cc3c(=O)[nH]2)cc1`, the pEC50 in the data set on Hepatitis C virus [2] is 5.03. In data set [3], the half-maximal cytotoxic concentration (CC50) at 4 h was 46 µM.

Turning to `CCCCn1c(=O)c(-c2c(Cl)cccc2Cl)cc2c(N)nc(Nc3ccccc3)nc21`, the pEC50 in the data set with Hepatitis C virus [2] was 4.92.

The compound `COCCOc1nc(N)nc2c1CC(c1c(Cl)cccc1Cl)C(=O)N2` (configuration not stated) had a pEC50 with Hepatitis C virus [2] of 4.66. Further, in data set [3], the midpoint of cytotoxicity, the CC50 at 4 h, lay at 65 µM.

In the data set with Hepatitis C virus [2], `Nc1nc(Nc2ccccc2)nc2[nH]c(=O)c(-c3c(F)cccc3F)cc12` showed a pEC50 of 4.76. Half-maximal cytotoxicity in data set [3] (CC50 at 4 h) was put at 2.4 µM.

On to `O=C1Nc2nc(Oc3ccccc3)nc(On3nnc4ccccc43)c2CC1c1ccc(F)cc1` (configuration not stated), for which the pEC50 in the data set on Hepatitis C virus [2] is 4.73. Besides, it took 62.7 µM to reach half-maximal cytotoxicity in data set [3] (CC50 at 4 h).

As for `O=C1Nc2nc(Nc3ccccc3)[nH]c(=O)c2CC1c1c(F)cccc1F` (configuration not stated), the pEC50 in the data set on Hepatitis C virus [2] was 7.57. Further, the CC50 at 4 h in data set [3] amounted to 5.3 µM. In data set [4], the selectivity ratio was determined as 196.

In the case of `Nc1nc(Nc2ccccc2)nc2[nH]c(=O)c(-c3c(Br)cccc3Br)cc12`, the pEC50 with Hepatitis C virus [2] is 5.11. The compound further registered a CC50 at 4 h in data set [3] of 166 µM.

For the compound `CSc1nc2c(c(=O)[nH]1)CC(Cc1ccccc1)C(=O)N2` (configuration not stated), the pEC50 with Hepatitis C virus [2] was 4.95. Besides, the CC50 at 4 h in data set [3] is 38.3 µM.

`Nc1nc(Nc2ccccc2)nc2[nH]c(=O)c(-c3ccccc3)cc12`: in the data set on Hepatitis C virus [2], the negative-log EC50 (pEC50) is 6.31. This compound also returned a CC50 at 4 h in data set [3] of 13.8 µM.

In the data set on Hepatitis C virus [2], `O=C1Nc2nc(Nc3ccccc3)nc(On3nnc4ccccc43)c2CC1c1ccc(F)cc1` (configuration not stated) gave a pEC50 of 5.89. The compound further returned a 50% cytotoxic concentration (CC50) at 4 h in data set [3] of 12.2 µM.

In the case of `Cn1c(=O)c(-c2c(Cl)cccc2Cl)cc2c(N)nc(N)nc21`, in the data set on Hepatitis C virus [2], the pEC50 is 4.78. In addition, the midpoint of cytotoxicity in data set [3], the CC50 at 4 h, lay at 120 µM.
